The source of these data is publication PMC6892255, “Identification of a potent small-molecule inhibitor of bacterial DNA repair that potentiates quinolone antibiotic activity in methicillin-resistant Staphylococcus aureus^” (Bioorganic & Medicinal Chemistry, 2019).

One assay concerns E. coli K-12 BW25113. As to the kind of experiment: MIC / growth inhibition assay (end-point OD600), single agent. In kind it is cell-based, Escherichia coli. Particulars: Escherichia coli, BW25113, end-point OD600 after 18 h, read-out: EC50 E. coli (K12 BW25113) Compound only. From the text:
(§1) Minimum inhibitory concentration (MIC) assays were used to evaluate the antimicrobial activity of compounds against Gram-negative (E. coli) and Gram-positive (S. aureus) bacteria. […] Gram-positive bacteria are more susceptible to small-molecule penetration, and compounds were therefore assessed for growth inhibition against the S. aureus SH1000 strain.
(§2) 2.1. Biological and biochemical methods
(§3) Bacterial strains and culture conditions
(§4) Strains utilized in the present study are detailed in Table S1. All strains used were cultivated on Mueller Hinton Agar (MHA) and grown to stationary-phase in Mueller Hinton Broth (MHB) at 37 °C for 16 h, with shaking at 180 r.p.m.
(§5) Minimum inhibitory concentration (MIC) assays
(§6) MIC assays were performed in 96 well plates and MICs were determined in accordance with the broth microdilution protocol.4 Strains grown to stationary-phase in MHB were adjusted to 5 x 10^5 colony-forming units (CFU)/mL in fresh MHB (100 µL/well) supplemented with DMSO to ensure a constant concentration of 0.5% (v/v) DMSO across all experiments. Where […]
(§7) or H2O2 (200 μM). Test compounds were prepared as two-fold serial dilutions. Cells were […]
(§8) as the lowest concentration with no visible bacterial growth, and the optical density at 600 nm (OD600) was recorded. OD600 measurements were background corrected against no-inocula control and normalized to DMSO control for dose-response analysis. The EC50 value mean and SEM were calculated from individual EC50 values from three biological replicates. […]

In a further assay the test system is S. aureus SH1000. The description is as above. In kind it is cell-based. The following applies: Staphylococcus aureus, SH1000, 18 h, end-point OD600 after 18 h, read-out: EC50 S. aureus (SH1000) Compound only.
Description: as §1, §2, §3, §4, §5, §6, §7, §8

A further assay relates to MRSA (USA300 JE2). As to the kind of experiment: Growth inhibition in the presence of mitomycin-C. In kind it is cell-based, Staphylococcus aureus. On the procedure: The analogue panel was further tested for potentiation of alternative DNA-damaging agents Mitomycin-C (MMC) and hydrogen peroxide (Table S2), which function via alkylation and oxidization DNA bases, respectively.
as §2, §3, §4, §5, §6, §7, §8

The next assay concerns the target T1, E. coli topoisomerase IV (Escherichia coli, UniProt P0AFI2+P20083).
T1 construct: purchased Inspiralis
The experiment in a line: Topoisomerase IV supercoiling relaxation assay (pQE80L). In kind it is biochemical. Particulars: at 12.5 µM (compounds).

In general, EC50 refers to the concentration that produces a half-maximal response.

T1 sequence (P0AFI2 whole entry): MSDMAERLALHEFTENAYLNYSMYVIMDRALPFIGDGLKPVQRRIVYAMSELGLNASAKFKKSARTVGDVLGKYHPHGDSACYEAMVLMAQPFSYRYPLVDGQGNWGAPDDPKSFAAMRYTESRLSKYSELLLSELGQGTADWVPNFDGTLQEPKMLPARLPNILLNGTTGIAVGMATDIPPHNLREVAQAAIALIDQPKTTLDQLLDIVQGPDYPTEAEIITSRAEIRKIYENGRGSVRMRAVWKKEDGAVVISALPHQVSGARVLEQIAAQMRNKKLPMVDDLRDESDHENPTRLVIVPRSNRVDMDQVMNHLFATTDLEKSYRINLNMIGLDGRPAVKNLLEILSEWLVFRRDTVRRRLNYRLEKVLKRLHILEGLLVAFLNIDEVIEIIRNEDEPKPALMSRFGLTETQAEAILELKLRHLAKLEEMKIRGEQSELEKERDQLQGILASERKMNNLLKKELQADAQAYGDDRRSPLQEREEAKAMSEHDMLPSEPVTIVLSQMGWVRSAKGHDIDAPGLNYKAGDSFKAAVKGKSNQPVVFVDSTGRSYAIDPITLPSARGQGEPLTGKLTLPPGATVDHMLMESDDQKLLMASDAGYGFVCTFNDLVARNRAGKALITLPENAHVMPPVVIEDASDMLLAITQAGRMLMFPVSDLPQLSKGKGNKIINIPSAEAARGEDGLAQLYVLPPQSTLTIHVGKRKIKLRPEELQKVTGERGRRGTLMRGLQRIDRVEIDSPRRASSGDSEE
T1 sequence (P20083 whole entry): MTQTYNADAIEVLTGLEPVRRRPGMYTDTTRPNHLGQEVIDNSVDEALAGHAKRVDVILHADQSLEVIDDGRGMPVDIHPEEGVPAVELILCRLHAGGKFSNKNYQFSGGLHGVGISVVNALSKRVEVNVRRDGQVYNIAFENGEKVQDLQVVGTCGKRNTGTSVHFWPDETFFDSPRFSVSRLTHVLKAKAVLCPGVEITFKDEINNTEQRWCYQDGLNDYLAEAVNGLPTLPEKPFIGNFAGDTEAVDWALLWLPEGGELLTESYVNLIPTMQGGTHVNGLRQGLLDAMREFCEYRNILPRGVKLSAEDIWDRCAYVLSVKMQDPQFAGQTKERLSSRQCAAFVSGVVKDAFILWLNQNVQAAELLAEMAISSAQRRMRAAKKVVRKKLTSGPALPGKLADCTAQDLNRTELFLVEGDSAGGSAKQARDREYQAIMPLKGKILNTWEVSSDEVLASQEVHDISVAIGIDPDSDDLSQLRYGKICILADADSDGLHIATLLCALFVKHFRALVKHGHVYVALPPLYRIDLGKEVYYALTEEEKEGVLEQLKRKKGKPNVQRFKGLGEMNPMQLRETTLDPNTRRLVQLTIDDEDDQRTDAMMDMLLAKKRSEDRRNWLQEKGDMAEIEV

Turning to `O=C(O)c1cn(C2CC2)c2cc(N3CCN(C(=S)Nc4ccc(C(F)(F)F)cc4)CC3)c(F)cc2c1=O` [Compound 10], the EC50 is 500 ± 50 nM in the assay with E. coli K-12 BW25113; 210 ± 30 nM with S. aureus SH1000; 1400 ± 300 nM in the assay on MRSA (USA300 JE2) (read-out: EC50 Compound + MMC (0.40 µM), MRSA USA300 JE2, mitomycin-C 0.40 µM). Besides, in the assay with MRSA (USA300 JE2) (JE2), the “Potentiation of Mitomycin-C (MMC)” value is recorded as “did not potentiate”. In addition, on E. coli topoisomerase IV, the “Inhibition of topoisomerase IV” value was “not inhibited and not”.
